Laboratory results from patent US20050197350A1, “Novel quinoline, tetrahydroquinazoline, and pyrimidine derivatives and methods of treatment related to the use thereof” (TAISHO PHARMACEUTICAL CO., LTD., priority 2003, published 2005).

Each molecule was assayed on MCH receptors (assay: MCH receptor activity class (method not given)). Conditions: MCH receptor; class by percent of control at 10^-7 M or IC50.

**Q.** How did the class turn out when `CCSc1ncccc1C(=O)NC[C@H]1CC[C@@H](Nc2cc(N(C)C)c3ccccc3n2)CC1` [compound 163] was run?
**A.** 3 (Class 3 The value of percent of control at 10^−7 M was more than 60% or the value of IC50 was more than 200 nM.)

**Q.** With `CN(C)c1cc(N[C@H]2CC[C@@H](NC(=O)c3cc(F)c(F)c(F)c3F)CC2)nc2ccccc12` [compound 128] as the molecule, how does the class read?
**A.** 3 (Class 3 The value of percent of control at 10^−7 M was more than 60% or the value of IC50 was more than 200 nM.)

**Q.** Which class does the source give for `CN(C)c1nc(N[C@H]2CC[C@@H](NC(=S)Nc3cccc(C(F)(F)F)c3)CC2)nc2c1CCCC2` [compound 1957] here?
**A.** 3 (Class 3 The value of percent of control at 10^−7 M was more than 60% or the value of IC50 was more than 200 nM.)

Same assay, conditions: class 1-3 by percent of control at 10^-7 M or IC50

**Q.** How did the class turn out when `Cc1ccc(C(=O)N[C@H]2CC[C@@H](Nc3nc4c(c(N(C)C)n3)CCCC4)CC2)cc1` [compound 487] was run?
**A.** 2 (Class 2: The value of percent of control at 10^−7 M was from 40% to 60% or the value of IC′50 was from 50 nM to 200 nM.)

**Q.** For `CN(C)c1ccnc(N[C@H]2CC[C@@H](CNC(=O)c3ccccc3SC(F)F)CC2)n1` [compound 427], which class is on record?
**A.** 3 (Class 3 The value of percent of control at 10^−7 M was more than 60% or the value of IC50 was more than 200 nM.)

**Q.** Which class does the source give for `CCC(Oc1ccccc1)C(=O)N[C@H]1CC[C@@H](Nc2nc3c(c(N(C)C)n2)CCCC3)CC1` (relative stereo) [compound 484] here?
**A.** 1 (Class 1: The value of percent of control at 10^−7 M was less than 40% or the value of IC50 was less than 50 nM.)

Same assay, conditions: class by percent of control at 10^-7 M or IC50

**Q.** Which class does the source give for `Cc1ccc(-c2ccc(C(=O)N[C@H]3CC[C@@H](Nc4nccc(N(C)C)n4)CC3)o2)c([N+](=O)[O-])c1` [compound 826, N-(cis-4-{[4-(dimethylamino)pyrimidin-2-yl]amino}cyclohexyl)-5-(4-methyl-2-nitrophenyl)-2-furamide] here?
**A.** 2 (Class 2: The value of percent of control at 10^−7 M was from 40% to 60% or the value of IC′50 was from 50 nM to 200 nM.)

**Q.** With `COc1cccc(OC)c1CNC[C@H]1CC[C@@H](Nc2nccc(N(C)C)n2)CC1` [compound 1243] as the molecule, how does the class read?
**A.** 2 (Class 2: The value of percent of control at 10^−7 M was from 40% to 60% or the value of IC′50 was from 50 nM to 200 nM.)

**Q.** `CN(C)c1ccnc(N[C@H]2CC[C@@H](NC(=O)c3ccccc3Sc3ccccc3C#N)CC2)n1` [compound 875] was tested. Which class did it give?
**A.** 3 (Class 3 The value of percent of control at 10^−7 M was more than 60% or the value of IC50 was more than 200 nM.)

**Q.** Which class does the source give for `CN(C)c1nc(N[C@H]2CC[C@@H](NC(=O)NCc3ccccc3)CC2)nc2c1CCCC2` [compound 1812] here?
**A.** 3 (Class 3 The value of percent of control at 10^−7 M was more than 60% or the value of IC50 was more than 200 nM.)

**Q.** `CN(C)c1cc(N[C@H]2CC[C@@H](NC(=O)Nc3ccccc3I)CC2)nc2ccccc12` [compound 2108] was tested. Which class did it give?
**A.** 3 (Class 3 The value of percent of control at 10^−7 M was more than 60% or the value of IC50 was more than 200 nM.)

**Q.** How did the class turn out when `CN(C)c1nc(N[C@H]2CC[C@@H](NC(=O)Nc3ccc(OC(F)F)cc3)CC2)nc2c1CCCC2` [compound 1876] was run?
**A.** 3 (Class 3 The value of percent of control at 10^−7 M was more than 60% or the value of IC50 was more than 200 nM.)

**Q.** For `CN(C)c1nc(N[C@H]2CC[C@@H](NCCc3c(-c4ccccc4)[nH]c4ccccc34)CC2)nc2c1CCCC2` [compound 1494], which class is on record?
**A.** 3 (Class 3 The value of percent of control at 10^−7 M was more than 60% or the value of IC50 was more than 200 nM.)

**Q.** With `CN(C)c1ccnc(N[C@H]2CC[C@@H](CNCc3ccccc3C#N)CC2)n1` [compound 1268] as the molecule, how does the class read?
**A.** 3 (Class 3 The value of percent of control at 10^−7 M was more than 60% or the value of IC50 was more than 200 nM.)

**Q.** Which class does the source give for `CN(C)c1ccnc(N[C@H]2CC[C@@H](NC(=O)c3ccc4c(c3)OCO4)CC2)n1` [compound 265] here?
**A.** 3 (Class 3 The value of percent of control at 10^−7 M was more than 60% or the value of IC50 was more than 200 nM.)

**Q.** How did the class turn out when `Cc1cc(C)c(NC(=S)N[C@H]2CC[C@@H](Nc3nc4c(c(N(C)C)n3)CCCC4)CC2)c(C)c1` [compound 1755] was run?
**A.** 1 (Class 1: The value of percent of control at 10^−7 M was less than 40% or the value of IC50 was less than 50 nM.)

**Q.** `CN(C)c1nc(N[C@H]2CC[C@@H](CNC(=O)c3ccccc3Br)CC2)nc2c1CCCC2` [compound 655] was tested. Which class did it give?
**A.** 3 (Class 3 The value of percent of control at 10^−7 M was more than 60% or the value of IC50 was more than 200 nM.)

**Q.** How did the class turn out when `CN(C)c1nc(N[C@H]2CC[C@@H](CNCc3ccc(O)cc3)CC2)nc2c1CCCC2` [compound 1396] was run?
**A.** 3 (Class 3 The value of percent of control at 10^−7 M was more than 60% or the value of IC50 was more than 200 nM.)

**Q.** With `Cc1cccc(CNC[C@H]2CC[C@@H](Nc3cc(N(C)C)c4ccccc4n3)CC2)c1` [compound 1184] as the molecule, how does the class read?
**A.** 3 (Class 3 The value of percent of control at 10^−7 M was more than 60% or the value of IC50 was more than 200 nM.)

**Q.** Which class does the source give for `CN(C)c1ccnc(N[C@H]2CC[C@@H](NC(=O)c3cc(-c4ccc(Cl)cc4)oc3C(F)(F)F)CC2)n1` [compound 358] here?
**A.** 3 (Class 3 The value of percent of control at 10^−7 M was more than 60% or the value of IC50 was more than 200 nM.)

**Q.** `CN(C)c1ccnc(N[C@H]2CC[C@@H](NC(=O)c3cc(F)cc(C(F)(F)F)c3)CC2)n1` [compound 256, N-(cis-4-{[4-(dimethylamino)pyrimidin-2-yl]amino}cyclohexyl)-3-fluoro-5-(trifluoromethyl)benzamide] was tested. Which class did it give?
**A.** 2 (Class 2: The value of percent of control at 10^−7 M was from 40% to 60% or the value of IC′50 was from 50 nM to 200 nM.)

**Q.** With `CN(C)c1cc(N[C@H]2CC[C@@H](NC(=O)Nc3ccc(Br)cc3C(F)(F)F)CC2)nc2ccccc12` [compound 2152] as the molecule, how does the class read?
**A.** 3 (Class 3 The value of percent of control at 10^−7 M was more than 60% or the value of IC50 was more than 200 nM.)

**Q.** How did the class turn out when `CCCCNC(=O)N[C@H]1CC[C@@H](Nc2cc(N(C)C)c3ccccc3n2)CC1` [compound 2125] was run?
**A.** 3 (Class 3 The value of percent of control at 10^−7 M was more than 60% or the value of IC50 was more than 200 nM.)

**Q.** How did the class turn out when `Cc1cc(C(=O)N[C@H]2CC[C@@H](Nc3nccc(N(C)C)n3)CC2)c(C)o1` [compound 289, N-(cis-4-{[4-(dimethylamino)pyrimidin-2-yl]amino}cyclohexyl)-2,5-dimethyl-3-furamide] was run?
**A.** 2 (Class 2: The value of percent of control at 10^−7 M was from 40% to 60% or the value of IC′50 was from 50 nM to 200 nM.)

**Q.** How did the class turn out when `CN(C)c1cc(N[C@H]2CC[C@@H](NC(=O)c3ccc(Cl)s3)CC2)nc2ccccc12` [compound 677] was run?
**A.** 2 (Class 2: The value of percent of control at 10^−7 M was from 40% to 60% or the value of IC′50 was from 50 nM to 200 nM.)

**Q.** `COc1ccc2c(c1)C(CC(=O)N[C@H]1CC[C@@H](Nc3cc(N(C)C)c4ccccc4n3)CC1)CC2=O` (relative stereo) [compound 713] was tested. Which class did it give?
**A.** 3 (Class 3 The value of percent of control at 10^−7 M was more than 60% or the value of IC50 was more than 200 nM.)

**Q.** `CN(C)c1cc(N[C@H]2CC[C@@H](CNC(=O)C3CC(=O)c4ccccc43)CC2)nc2ccccc12` (relative stereo) [compound 798] was tested. Which class did it give?
**A.** 3 (Class 3 The value of percent of control at 10^−7 M was more than 60% or the value of IC50 was more than 200 nM.)

Same assay, conditions: class by percent of control at 10^−7 M or IC50

**Q.** For `Cc1cnc(N[C@H]2CC[C@@H](NC(=O)c3ccccc3F)CC2)nc1N(C)C` [compound 2916], which class is on record?
**A.** 3 (Class 3 The value of percent of control at 10^−7 M was more than 60% or the value of IC50 was more than 200 nM.)

**Q.** With `Cc1nc(N[C@H]2CC[C@@H](NC(=O)C(O)c3cc(F)cc(F)c3)CC2)nc(N(C)C)c1C` (relative stereo) [compound 2829, 2-(3,5-difluorophenyl)-N-(cis-4-{[4-(dimethylamino)-5,6-dimethylpyrimidin-2-yl]amino}cyclohexyl)-2-hydroxyacetamide] as the molecule, how does the class read?
**A.** 2 (Class 2: The value of percent of control at 10^−7 M was from 40% to 60% or the value of IC′50 was from 50 nM to 200 nM.)

**Q.** `Cc1ccc(C(=O)N[C@H]2CC[C@@H](Nc3nc(C)c(C)c(N(C)C)n3)CC2)cc1F` [compound 2853, N-(cis-4-{[4-(dimethylamino)-5,6-dimethylpyrimidin-2-yl]amino}cyclohexyl)-3-fluoro-4-methylbenzamide] was tested. Which class did it give?
**A.** 1 (Class 1: The value of percent of control at 10^−7 M was less than 40% or the value of IC50 was less than 50 nM.)

**Q.** How did the class turn out when `Cc1cc(N(C)C)nc(N[C@H]2CC[C@@H](CNC(=O)c3cccc(C(F)(F)F)c3)CC2)n1` [compound 2757] was run?
**A.** 3 (Class 3 The value of percent of control at 10^−7 M was more than 60% or the value of IC50 was more than 200 nM.)

**Q.** With `COc1ccc([C@H](C)NC(=O)[C@H]2CC[C@@H](Nc3nc(C)cc(N(C)C)n3)CC2)cc1` [compound 2802, cis-4-{[4-(dimethylamino)-6-methylpyrimidin-2-yl]amino}-N-[(1S)-1-(4-methoxyphenyl)ethyl]cyclohexanecarboxamide] as the molecule, how does the class read?
**A.** 1 (Class 1: The value of percent of control at 10^−7 M was less than 40% or the value of IC50 was less than 50 nM.)

**Q.** `COc1ccccc1C(=O)N[C@H]1CC[C@@H](Nc2nc(C)c(C)c(N(C)C)n2)CC1` [compound 2848, N-(cis-4-{[4-(dimethylamino)-5,6-dimethylpyrimidin-2-yl]amino}cyclohexyl)-2-methoxybenzamide] was tested. Which class did it give?
**A.** 2 (Class 2: The value of percent of control at 10^−7 M was from 40% to 60% or the value of IC′50 was from 50 nM to 200 nM.)

**Q.** With `COc1cccc(C(=O)N[C@H]2CC[C@@H](Nc3nc(C)c(C)c(N(C)C)n3)CC2)c1` [compound 2824, N-(cis-4-{[4-(dimethylamino)-5,6-dimethylpyrimidin-2-yl]amino}cyclohexyl)-3-methoxybenzamide] as the molecule, how does the class read?
**A.** 1 (Class 1: The value of percent of control at 10^−7 M was less than 40% or the value of IC50 was less than 50 nM.)

**Q.** Which class does the source give for `Cc1nc(N[C@H]2CC[C@@H](NCc3cccc(OC(F)(F)F)c3)CC2)nc(N(C)C)c1C` [compound 2865] here?
**A.** 3 (Class 3 The value of percent of control at 10^−7 M was more than 60% or the value of IC50 was more than 200 nM.)

**Q.** `Cc1cc(N(C)C)nc(N[C@H]2CC[C@@H](NC(=O)c3cccc(C#N)c3)CC2)n1` [compound 2957, 3-cyano-N-(cis-4-{[4-(dimethylamino)-6-methylpyrimidin-2-yl]amino}cyclohexyl)benzamide] was tested. Which class did it give?
**A.** 1 (Class 1: The value of percent of control at 10^−7 M was less than 40% or the value of IC50 was less than 50 nM.)
